pIC50: −log10 of the molar value. Where “and” joins values, the source holds several entries; their conditions need not be identical. Identical values can stand only once. Like-named read-outs stand apart in the source and are kept apart here.
Tests used:
[1] = target: T1, GST-tagged PNCK recombinant protein (Homo sapiens, UniProt Q6P2M8); test: ADP-Glo Kinase Assay, biochemical PNCK inhibitor screen; details: compound 10uM, 25uM ATP, normalized to DMSO and staurosporine controls; for inhibition at 10 µM: read-out: Avg. Normalized % Inhibition, 10uM, ADP Kinase Glo
T1 construct: GST; purchased Novus NBP1-99886
Protocol: ADP-Glo Kinase Assay (V6930, Promega) was used to screen the first round of compounds against PNCK. […] Autocamtide-II (GenScript RP10271) was used as the peptide substrate. This peptide was dissolved in water and prepared immediately prior to the assay. Calcium/Calmodulin 10X (Abcam ab189137) solution was used to create a custom kinase buffer: 40mM Tris,pH 7.5; 20mM MgCl2; 0.1mg/ml BSA; 50μM DTT and Ca2+/Calmodulin solution (0.03μg/μl, Calmodulin, 1mM Tris,pH 7.3, 0.5mM CaCl2). […] A standard curve was then done to determine the amount of protein needed to generate a signal in the linear range of the ATP curve. 100ng of PNCK and 2ng of substrate was used per well in the 96-well plate format of this assay. […] Plates were read using the Clariostar Plus. Data was normalized to a DMSO and staurosporine controls.
(§1) Data analysis of ADP Kinase Glo results were carried out per the manufacturer’s instructions. Results were represented as a percent decrease in activity. Data was normalized to staurosporine (positive control) as 100% decrease and DMSO (negative control) as a 0% decrease. Data for NanoBRET was analyzed by dividing the acceptor by the donor emission and […] to obtain raw millibret units (mBU). Background was subtracted using control emission averages. Data was normalized to positive and negative controls of staurosporine and DMSO. Concentration-response curves were plotted in GraphPad Prism 8 and IC50s were extrapolated using non-linear fit with concentrations transformed to logarithmic scale. Baseline was held constant and represented the average mBU of staurosporine controls while the top was constrained to represent the average mBU of DMSO controls. Error bars on dose-response curves represent standard deviations.

[2] = target: T2, PNCK Nano-luciferase fusion (Homo sapiens, UniProt Q6P2M8); test: NanoBRET Target Engagement Intracellular Kinase Assay, cell-based PNCK binding screen and dose response in HEK293 cells; details: for NanoBRET binding, result in words: cell-based screen / comparison with parent hit
T2 construct: host or cells: HEK293
T2 sequence (Q6P2M8 whole entry, the tested form may be a part): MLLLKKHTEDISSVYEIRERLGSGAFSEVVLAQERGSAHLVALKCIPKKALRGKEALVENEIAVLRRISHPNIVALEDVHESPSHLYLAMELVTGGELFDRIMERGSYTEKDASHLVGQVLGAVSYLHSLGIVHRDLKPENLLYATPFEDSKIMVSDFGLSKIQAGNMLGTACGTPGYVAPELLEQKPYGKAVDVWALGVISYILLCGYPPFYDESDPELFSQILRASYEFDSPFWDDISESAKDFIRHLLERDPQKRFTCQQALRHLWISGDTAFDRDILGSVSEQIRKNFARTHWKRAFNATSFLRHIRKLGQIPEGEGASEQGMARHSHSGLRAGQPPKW
Protocol: The NanoBRET Target Engagement Intracellular Kinase Assay (Promega N2520) is a cell-based binding screen which reads loss of BRET signal as a result of target binding. A PNCK Nano-luciferase fusion vector plasmid was generated custom by Promega. The K-10 tracer was used for the assay, as determined by Promega. The plasmid was maxiprepped by Genewiz for use in all future assays. HEK293 cells were seeded in a T175 flask in DMEM with 10% FBS. The following day, cells were counted to 10,000, resuspended in assay media (Optimem with no phenol red, 1% FBS). Plasmid and transfection reagent (Fugene HD, Promega E2311) were added to the mixture and cells were seeded in a white 96-well plate. After 20–24 hours, media was changed, and the assay proceeded according to protocol. K10 tracer was added at the recommended concentration of 1uM while compounds were initially screened at both 10uM and 1uM. Cells incubated with compound at 37 degrees Celsius for a maximum of 2 hours before the plate was read using Clariostar Plus. Data was normalized to Staurosporine and DMSO controls. For compounds selected for further analysis, dose response curves were generated using the same testing protocol but at 8 different concentrations: 24uM, 12uM, 6uM, 3uM, 1.5uM, .75uM 0.375uM and 0.1875uM. UM195 was tested with concentrations from 12uM to 0.09375. Similarly, compounds from the analog by catalog analysis were tested at concentrations from 24uM to 0.1875uM.
as §1

[3] = compound 1uM, HEK293, K10 tracer 1uM, normalized to staurosporine and DMSO, read-out: Avg. Normalized % Inhibition, 1uM, Nanobret
[4] = compound 10uM, HEK293, K10 tracer 1uM, normalized to staurosporine and DMSO, read-out: Avg. Normalized % Inhibition, 10uM, Nanobret

COc1ccc(Cl)c(S(=O)(=O)Nc2ccc(OCC(=O)O)cc2)c1 [UM_038]
Avg. Normalized % Inhibition, 10uM, ADP Kinase Glo [1]: 68.8% | inhibition at 10 µM [1]: > 50% | inhibition at 1 µM [2, 3]: 0% | inhibition at 10 µM [2, 4]: 18.9%

COc1cc(OC)c(Nc2ncnc3sc(C(=O)O)c(C)c23)cc1Cl [UM_028]
Avg. Normalized % Inhibition, 10uM, ADP Kinase Glo [1]: Negligible | inhibition at 1 µM [2, 3]: 3.45% | inhibition at 10 µM [2, 4]: 16.7%

CC(C)(CC(=O)Nc1ccc(Oc2ccnc3ccccc23)c(F)c1)C(=O)O [UM_026]
Avg. Normalized % Inhibition, 10uM, ADP Kinase Glo [1]: 76.56% | inhibition at 1 µM [2, 3]: 0% | inhibition at 10 µM [2, 4]: 0%

O=C(O)Cc1ccc(NS(=O)(=O)c2cccc(Cl)c2Cl)cc1 [UM_024]
inhibition at 10 µM [1]: 48.6% | inhibition at 1 µM [2, 3]: 0% | inhibition at 10 µM [2, 4]: 0%

COc1ccc(CNC(=O)c2cc(C3CC3)[nH]n2)cc1C(=O)O [UM_019]
Avg. Normalized % Inhibition, 10uM, ADP Kinase Glo [1]: Negligible | inhibition at 1 µM [2, 3]: 0% | inhibition at 10 µM [2, 4]: 0%

COc1ccccc1CNc1ncnc2sc(C(=O)O)c(C)c12 [UM_035]
Avg. Normalized % Inhibition, 10uM, ADP Kinase Glo [1]: 75.66% | inhibition at 1 µM [2, 3]: 0% | inhibition at 10 µM [2, 4]: 13.6%

O=c1nc(CSc2nnc(-c3ccccc3)c3ccccc23)[nH][nH]1 [UM_022]
Avg. Normalized % Inhibition, 10uM, ADP Kinase Glo [1]: Negligible | inhibition at 1 µM [2, 3]: 0% | inhibition at 10 µM [2, 4]: 10.5%

O=C(O)c1ccc(F)c(S(=O)(=O)Nc2ccc(-c3cnco3)cc2)c1 [UM_021]
inhibition at 10 µM [1]: 33.3% | inhibition at 1 µM [2, 3]: 0% | inhibition at 10 µM [2, 4]: 0%

COc1ccc(C(=O)/C=C/c2n[nH]c3cc(C(=O)O)ccc23)c(F)c1 [UM_020]
Avg. Normalized % Inhibition, 10uM, ADP Kinase Glo [1]: Negligible | inhibition at 1 µM [2, 3]: 0% | inhibition at 10 µM [2, 4]: 0%

COc1cccc([C@@H](C)NC(=O)c2ccc(N3CC(=O)NC3=O)cc2)c1 [UM_032]
Avg. Normalized % Inhibition, 10uM, ADP Kinase Glo [1]: 69.5% | inhibition at 10 µM [1]: > 50% | inhibition at 1 µM [2, 3]: 0% | inhibition at 10 µM [2, 4]: 17.4%

CC(C)c1ccc(NS(=O)(=O)c2cc(-c3ccc(=O)[nH]n3)ccc2Cl)cc1 [UM_029]
Avg. Normalized % Inhibition, 10uM, ADP Kinase Glo [1]: 81.53% | inhibition at 1 µM [2, 3]: 0% | inhibition at 10 µM [2, 4]: 52%

O=C(O)Cc1cc(C2CCN(C(=O)Cc3n[nH]c4ccccc34)CC2)[nH]n1 [UM_039]
Avg. Normalized % Inhibition, 10uM, ADP Kinase Glo [1]: 91% and 91.1687% | NanoBRET binding, result in words [2]: negligible activity | inhibition at 1 µM [2, 3]: 2.17% | inhibition at 10 µM [2, 4]: 6.89%

CN([C@@H](Cc1ccc(OS(=O)(=O)c2cccc3cnccc23)cc1)C(=O)N1CCN(c2ccccc2)CC1)S(=O)(=O)c1cccc2cnccc12 [KN-62, reference compound]
inhibition at 10 µM [1]: 100% | inhibition at 1 µM ([2]; HEK293, read-out: Avg. Normalized % Inhibition, 1uM, Nanobret): 31.2% | inhibition at 10 µM ([2]; HEK293, read-out: Avg. Normalized % Inhibition, 10uM, Nanobret): 81.5%

O=C(O)c1cccc(S(=O)(=O)Nc2nc3ccc(Cl)cc3s2)c1 [UM_203]
inhibition at 1 µM [2, 3]: 5.12% | inhibition at 10 µM [2, 4]: 22.7%

O=C(O)c1cccc(NS(=O)(=O)/C=C/c2ccc(Cl)cc2)c1 [UM_235]
inhibition at 1 µM [2, 3]: 4.02% | inhibition at 10 µM [2, 4]: 10.3%

Cc1ccccc1CN1CCC(CNc2ncnc3sc(C(=O)O)c(C)c23)CC1 [UM_027]
inhibition at 10 µM [1]: 63.9% | inhibition at 1 µM [2, 3]: 7.16% | inhibition at 10 µM [2, 4]: 23%

O=C1CCCN1CC(O)COc1ccc2c3c(c(=O)oc2c1)CCCCC3 (stereo not shown) [UM_257]
inhibition at 1 µM [2, 3]: 15.2% | inhibition at 10 µM [2, 4]: 48.6%

Cc1nc2c(sc3nc(N4CCOCC4)c4c(c32)CC(C)(C)OC4)c(=O)o1 [UM_225]
inhibition at 1 µM [2, 3]: 21.7% | inhibition at 10 µM [2, 4]: 47.7%

Cc1ccnc2nc(C(=O)OCC(=O)c3ccc(Cl)cc3Cl)nn12 [UM_198]
inhibition at 1 µM [2, 3]: 2.17% | inhibition at 10 µM [2, 4]: 22.7%

O=c1[nH]c(CSc2ccc3ccccc3n2)nc2ccccc12 [UM_281]
inhibition at 1 µM [2, 3]: 26.6% | inhibition at 10 µM [2, 4]: 54.5%

O=C1CCCc2c1cnc1nc(N3CCCCC3)nc(O)c21 [UM_232]
inhibition at 1 µM [2, 3]: 1.49% | inhibition at 10 µM [2, 4]: 10.9%

Cn1c(=O)n(C(N)=O)c(=O)c2c1nc1n2CCCN1c1ccc(F)cc1 [UM_223]
inhibition at 1 µM [2, 3]: 17% | inhibition at 10 µM [2, 4]: 44.6%

O=C(O)c1cccnc1SCCCN1C(=O)c2cccc3cccc(c23)C1=O [UM_216]
inhibition at 1 µM [2, 3]: 2.34% | inhibition at 10 µM [2, 4]: 25.4%

O=c1[nH]c(CSc2ncccn2)nc2ccc(Cl)cc12 [UM_278]
NanoBRET binding, result in words [2]: did not demonstrate significantly improved binding | inhibition at 1 µM [2, 3]: 10.9% | inhibition at 10 µM [2, 4]: 23.6%

CC1CCc2c(sc(NC(=O)c3cccs3)c2C(N)=O)C1 (stereo not shown) [UM_255]
inhibition at 1 µM [2, 3]: 0% | inhibition at 10 µM [2, 4]: 1.24%

COc1ccc2c(O)c(C(=O)N(C)Cc3c(C)noc3C)cnc2c1 [UM_200]
inhibition at 1 µM [2, 3]: 0% | inhibition at 10 µM [2, 4]: 17.7%

Nn1c(SCc2ccc(Br)cc2)nnc(CCC(=O)O)c1=O [UM_192]
inhibition at 1 µM [2, 3]: 0% | inhibition at 10 µM [2, 4]: 0% | cell permeability ([2]; stated on testing in NanoBRET assay): not cell permeable

Cn1cnnc1SCc1nc(N)c2c3c(sc2n1)CCCC3 [UM_214]
inhibition at 1 µM [2, 3]: 27.2% | inhibition at 10 µM [2, 4]: 62.3%

COc1cccc(-n2nnc3c(=O)n(CC(=O)N4CCCC4)cnc32)c1 [UM_230]
inhibition at 1 µM [2, 3]: 21.2% | inhibition at 10 µM [2, 4]: 55.1%

N#Cc1cnc(Sc2nnc(-c3ccccc3)o2)cn1 [UM_253]
inhibition at 1 µM [2, 3]: 4.54% | inhibition at 10 µM [2, 4]: 55.6%

Cc1cc(C)n2nc(SCc3nc4ccccc4s3)nc2n1 [UM_218]
inhibition at 1 µM [2, 3]: 16.7% | inhibition at 10 µM [2, 4]: 61.2%

Cc1[nH]ccc1C(=O)NC1CCC(N2C(=O)CCC2=O)CC1 (stereo not shown) [UM_211]
inhibition at 1 µM [2, 3]: 0% | inhibition at 10 µM [2, 4]: 0%

Cc1noc2ncnc(N3CCC(n4c(C)nc5ccccc54)CC3)c12 [UM_215]
inhibition at 1 µM [2, 3]: 0% | inhibition at 10 µM [2, 4]: 19.4%

O=C(c1c(F)cc(F)cc1F)C1CCN(C(=O)c2ccnnc2)CC1 [UM_212]
inhibition at 1 µM [2, 3]: 0% | inhibition at 10 µM [2, 4]: 49.9%

O=C(COc1ccc2c3c(c(=O)oc2c1)CCCCC3)N1CCc2ccccc21 [UM_213, 3-[2-(2,3-dihydro-1H-indol-1-yl)-2-oxoethoxy]-6H,7H,8H,9H,10H,11H-cyclohepta [c]chromen-6-one]
pIC50 ([2]; 8-point concentration-response, HEK293): 5.02 | Dose-Response Curve Data (NanoBRET signal, replicates) ([2]; Concentration 1.20E-05 M): 7.35 and 7.43 (2×) | Dose-Response Curve Data (NanoBRET signal, replicates) ([2]; Concentration 1.50E-06 M): 8.59 and 8.87 and 8.44 | Dose-Response Curve Data (NanoBRET signal, replicates) ([2]; Concentration 1.88E-07 M): 8.66 and 8.93 and 8.52 | Dose-Response Curve Data (NanoBRET signal, replicates) ([2]; Concentration 2.40E-05 M): 6.31 and 6.47 and 6.34 | Dose-Response Curve Data (NanoBRET signal, replicates) ([2]; Concentration 3.00E-06 M): 8.12 and 8.73 and 8.41 | Dose-Response Curve Data (NanoBRET signal, replicates) ([2]; Concentration 3.75E-07 M): 8.92 and 8.51 and 8.71 | Dose-Response Curve Data (NanoBRET signal, replicates) ([2]; Concentration 6.00E-06 M): 8.04 and 8.33 and 8.32 | Dose-Response Curve Data (NanoBRET signal, replicates) ([2]; Concentration 7.50E-07 M): 8.68 and 8.62 and 8.88 | inhibition at 1 µM [2, 3]: 56.7% | inhibition at 10 µM [2, 4]: 91.5%

O=c1oc2cc(OC3OC(CO)C(O)C(O)C3O)c(Cl)cc2c2c1CCCC2 (stereo not shown) [UM_226]
inhibition at 1 µM [2, 3]: 21.8% | inhibition at 10 µM [2, 4]: 51.6%
